# In patent US11807609B2, “Deuterated compounds as immunomodulators” (CHEMOCENTRYX, INC., priority 2017, dated 2023):
# Target: T1, C5aR (Homo sapiens, UniProt P21730)
# T1 construct: added to freshly-drawn human blood (EDTA as anticoagulant); endogenous in cells; host or cells: leukocytes in freshly drawn human whole blood (EDTA)
# T1 sequence (P21730 1-350): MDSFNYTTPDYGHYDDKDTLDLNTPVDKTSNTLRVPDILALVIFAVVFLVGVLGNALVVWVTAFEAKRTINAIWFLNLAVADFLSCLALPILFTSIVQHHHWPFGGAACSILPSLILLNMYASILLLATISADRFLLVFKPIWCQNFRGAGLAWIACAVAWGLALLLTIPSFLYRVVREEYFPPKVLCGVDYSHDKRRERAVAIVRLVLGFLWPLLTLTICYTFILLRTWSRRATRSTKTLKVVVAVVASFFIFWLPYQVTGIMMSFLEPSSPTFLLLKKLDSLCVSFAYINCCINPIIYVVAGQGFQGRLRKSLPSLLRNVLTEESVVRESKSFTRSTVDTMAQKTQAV
# Assay: C5a-induced chemotaxis (migration) assay in freshly-drawn human blood, ChemoTX plate, CyQUANT readout
# Format: cell-based
# Details: migration of cells from human whole blood (EDTA) toward recombinant hC5a, 37° C., 90-180 minutes; read-out: Mig IC50
# Experimental: A serial dilution of C5aR compound or an equivalent volume of DMSO was added to freshly-drawn human blood (EDTA as anticoagulant). Separately, recombinant hC5a was diluted with chemotaxis buffer, after which 29 μl of diluted chemokine was placed in the lower wells of a ChemoTX plate (Neuro Probe, Gaithersburg, MD). A 3-μm (pore size) polycarbonate membrane (Neuro Probe, Gaithersburg, MD) was placed onto the plate, and 20 μL of the blood/compound mixture was transferred onto each well of the membrane. The plates were incubated at 37° C. for 90-180 minutes, after which the polycarbonate membranes were removed and 5 μl of the DNA-intercalating agent CyQUANT (Invitrogen, Carlsbad, CA) was added to the lower wells. The amount of fluorescence, corresponding to the number of migrated cells, was measured using a Spectrafluor Plus plate reader (TECAN, San Jose, CA).
# Compounds in Table 1 were prepared by methods as described in the Examples, and evaluated according to the assay above. The IC50 of the compounds are presented in Table 1 as follows: +++, IC50≤100 nM .
row,IC50 [nM],SMILES
1,≤ 100,[2H]c1cc([C@H]2[C@@H](C(=O)Nc3c([2H])cc(C)c(C(F)(F)F)c3[2H])CCCN2C(=O)c2c(C)cccc2F)ccc1NC1CCCC1 [Compound 1.007]
2,≤ 100,[2H]c1cc([C@H]2[C@@H](C(=O)Nc3ccc(C([2H])([2H])O)c(C(F)(F)F)c3)CCCN2C(=O)c2c(C)cccc2F)ccc1NC1CCCC1 [Compound 1.002]
3,≤ 100,[2H]c1cc(C)c(C(F)(F)F)cc1NC(=O)[C@H]1CCCN(C(=O)c2c(C)cccc2F)[C@H]1c1ccc(NC2CCCC2)cc1 [Compound 1.020]
4,≤ 100,"[2H]C1([2H])C([2H])([2H])C([2H])([2H])C([2H])(Nc2ccc([C@H]3[C@@H](C(=O)Nc4ccc(C)c(C(F)(F)F)c4)CCCN3C(=O)c3c(C)cccc3F)cc2)C1([2H])[2H] [Compound 1.019, (2R,3S)-2-(4-((cyclopentyl-d9)amino)phenyl)-1-(2-fluoro-6-methylbenzoyl)-N-(4-methyl-3-(trifluoromethyl)phenyl)piperidine-3-carboxamide]"
5,≤ 100,[2H]c1cc([C@H]2[C@@H](C(=O)Nc3ccc(C)c(C(F)(F)F)c3)CCCN2C(=O)c2c(C)cccc2F)ccc1NC1CCCC1 [Compound 1.008]
6,≤ 100,[2H]c1cc(C)c(C(=O)N2CCC[C@H](C(=O)Nc3ccc(C)c(C(F)(F)F)c3)[C@@H]2c2ccc(NC3CC([2H])([2H])C([2H])([2H])C3)cc2)c(F)c1 [Compound 1.013]
7,≤ 100,"[2H]c1cc(C)c(C(F)(F)F)c([2H])c1NC(=O)[C@H]1CCCN(C(=O)c2c(C)cccc2F)[C@H]1c1ccc(NC2CCCC2)cc1 [Compound 1.018, (2R,3S)-2-(4-(cyclopentylamino)phenyl)-1-(2-fluoro-6-methylbenzoyl)-N-(4-methyl-3-(trifluoromethyl)phenyl-2,6-d3)piperidine-3-carboxamide]"
8,≤ 100,"[2H]C([2H])(O)c1ccc(NC(=O)[C@H]2CCCN(C(=O)c3c(C)cccc3F)[C@H]2c2ccc(NC3CCCC3)cc2)cc1C(F)(F)F [Compound 1.006, (2R,3S)-2-(4-(cyclopentylamino)phenyl)-1-(2-fluoro-6-methylbenzoyl)-N-(4-(hydroxymethyl-d2)-3-(trifluoromethyl)phenyl)-piperidine-3-carboxamide]"
9,≤ 100,[2H]c1cc([C@H]2[C@@H](C(=O)Nc3ccc(C)c(C(F)(F)F)c3)CCCN2C(=O)c2c(F)cccc2C([2H])([2H])[2H])ccc1NC1CCCC1 [Compound 1.004]
10,≤ 100,[2H]c1cc(C)c(C(=O)N2CCC[C@H](C(=O)Nc3ccc(C)c(C(F)(F)F)c3)[C@@H]2c2ccc(NC3CCCC3)cc2)c(F)c1 [Compound 1.016]
11,≤ 100,"[2H]C([2H])([2H])c1cccc(F)c1C(=O)N1CCC[C@H](C(=O)Nc2ccc(C([2H])([2H])O)c(C(F)(F)F)c2)[C@@H]1c1ccc(NC2CCCC2)cc1 [Compound 1.003, (2R,3S)-2-(4-(cyclopentylamino)phenyl)-1-(2-fluoro-6-(methyl-d3)benzoyl)-N-(4-(hydroxymethyl-d2)-3-(trifluoromethyl)phenyl)piperidine-3-carboxamide]"
12,≤ 100,"[2H]C([2H])([2H])c1cccc(F)c1C(=O)N1CCC[C@H](C(=O)Nc2ccc(C)c(C(F)(F)F)c2)[C@@H]1c1ccc(NC2CC([2H])([2H])C([2H])([2H])C2)cc1 [Compound 1.014, (2R,3S)-2-(4-((cyclopentyl-3,3,4,4-d4)amino)phenyl)-1-(2-fluoro-6-(methyl-d3)benzoyl)-N-(4-methyl-3-(trifluoromethyl)phenyl)piperidine-3-carboxamide]"
13,≤ 100,[2H][C@]1(C(=O)Nc2ccc(C)c(C(F)(F)F)c2)CCCN(C(=O)c2c(C)cccc2F)[C@H]1c1ccc(NC2CCCC2)cc1 [Compound 1.015]
14,≤ 100,"[2H]C([2H])([2H])c1ccc(NC(=O)[C@H]2CCCN(C(=O)c3c(F)cccc3C([2H])([2H])[2H])[C@H]2c2ccc(NC3CCCC3)cc2)cc1C(F)(F)F [Compound 1.010, (2R,3S)-2-(4-(cyclopentylamino)phenyl)-1-(2-fluoro-6-(methyl-d3)benzoyl)-N-(4-(methyl-d3)-3-(trifluoromethyl)phenyl)piperidine-3-carboxamide]"
15,≤ 100,[2H]C1(Nc2ccc([C@H]3[C@@H](C(=O)Nc4ccc(C)c(C(F)(F)F)c4)CCCN3C(=O)c3c(C)cccc3F)cc2)CCCC1 [Compound 1.009]
16,≤ 100,[2H]C([2H])([2H])c1cccc(F)c1C(=O)N1CCC[C@H](C(=O)Nc2ccc(C)c(C(F)(F)F)c2)[C@@H]1c1ccc(NC2CCCC2)cc1 [Compound 1.017]
17,≤ 100,[2H]c1cc(C)c(C(=O)N2CCC[C@H](C(=O)Nc3ccc(C([2H])([2H])O)c(C(F)(F)F)c3)[C@@H]2c2ccc(NC3CCCC3)cc2)c(F)c1 [Compound 1.001]
18,≤ 100,[2H]C1([2H])CC(Nc2ccc([C@H]3[C@@H](C(=O)Nc4ccc(C)c(C(F)(F)F)c4)CCCN3C(=O)c3c(C)cccc3F)cc2)CC1([2H])[2H] [Compound 1.005]
19,≤ 100,"[2H]C([2H])([2H])c1ccc(NC(=O)[C@H]2CCCN(C(=O)c3c(C)cccc3F)[C@H]2c2ccc(NC3CCCC3)cc2)cc1C(F)(F)F [Compound 1.021, (2R,3S)-2-(4-(cyclopentylamino)phenyl)-1-(2-fluoro-6-methylbenzoyl)-N-(4-(methyl-d3)-3-(trifluoromethyl)phenyl)piperidine-3-carboxamide]"
20,≤ 100,[2H]C([2H])([2H])c1cccc(F)c1C(=O)N1CCC[C@H](C(=O)Nc2ccc(CO)c(C(F)(F)F)c2)[C@@H]1c1ccc(NC2CCCC2)cc1 [Compound 1.011]
21,≤ 100,[2H]c1cc(C)c(C(F)(F)F)c([2H])c1NC(=O)[C@H]1CCCN(C(=O)c2c(F)cccc2C([2H])([2H])[2H])[C@H]1c1ccc(NC2CCCC2)cc1 [Compound 1.012]
